Patent US12297194B2, “N2-phenylpyrimidine-2,4-diamine compounds, and preparation methods and methods of use thereof” (BRIDGE BIOTHERAPEUTICS, INC., priority 2021, dated 2025)

Experiments:
Assay type in all cases: cell-based, murine
Ba/F3 EGFR Wild-type = Ba/F3 EGFR Wild-type (Homo sapiens, UniProt P00533); experiment: CellTiter-Glo cell viability, Ba/F3 EGFR wild-type cells; settings: 72 hours, read-out: Ba/F3 EGFR mutant cell (IC50, nM) WT
In short: (§1)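 IC50 values derive from CellTiter-Glo luminescence measured after 72 hours of treatment of EGFR-dependent Ba/F3 cells, dosed at concentrations up to 2000 nM starting 24 hours after seeding.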

[1] = molecular target: Ba/F3 EGFR Del19/C797S mutants (Homo sapiens, UniProt P00533, C797S, cells depend on it, form not given); experiment: CellTiter-Glo cell viability, Ba/F3 EGFR Del19/C797S cells; settings: 72 hours, read-out: Ba/F3 EGFR mutant cell (IC50, nM) D/C
In short: as §1

[2] = molecular target: Ba/F3 EGFR Del19/T790M mutants (Homo sapiens, UniProt P00533, T790M, cells depend on it, form not given); experiment: CellTiter-Glo cell viability, Ba/F3 EGFR Del19/T790M cells; settings: 72 hours, read-out: Ba/F3 EGFR mutant cell (IC50, nM) D/T
In short: as §1

[3] = molecular target: Ba/F3 EGFR L858R/T790M/C797S mutants (Homo sapiens, UniProt P00533, T790M/C797S/L858R, cells depend on it); experiment: CellTiter-Glo cell viability, Ba/F3 EGFR L858R/T790M/C797S cells; settings: 72 hours, read-out: Ba/F3 EGFR mutant cell (IC50, nM) L/T/C
Sequence of Ba/F3 EGFR L858R/T790M/C797S mutants (P00533 whole entry T790M/C797S/L858R): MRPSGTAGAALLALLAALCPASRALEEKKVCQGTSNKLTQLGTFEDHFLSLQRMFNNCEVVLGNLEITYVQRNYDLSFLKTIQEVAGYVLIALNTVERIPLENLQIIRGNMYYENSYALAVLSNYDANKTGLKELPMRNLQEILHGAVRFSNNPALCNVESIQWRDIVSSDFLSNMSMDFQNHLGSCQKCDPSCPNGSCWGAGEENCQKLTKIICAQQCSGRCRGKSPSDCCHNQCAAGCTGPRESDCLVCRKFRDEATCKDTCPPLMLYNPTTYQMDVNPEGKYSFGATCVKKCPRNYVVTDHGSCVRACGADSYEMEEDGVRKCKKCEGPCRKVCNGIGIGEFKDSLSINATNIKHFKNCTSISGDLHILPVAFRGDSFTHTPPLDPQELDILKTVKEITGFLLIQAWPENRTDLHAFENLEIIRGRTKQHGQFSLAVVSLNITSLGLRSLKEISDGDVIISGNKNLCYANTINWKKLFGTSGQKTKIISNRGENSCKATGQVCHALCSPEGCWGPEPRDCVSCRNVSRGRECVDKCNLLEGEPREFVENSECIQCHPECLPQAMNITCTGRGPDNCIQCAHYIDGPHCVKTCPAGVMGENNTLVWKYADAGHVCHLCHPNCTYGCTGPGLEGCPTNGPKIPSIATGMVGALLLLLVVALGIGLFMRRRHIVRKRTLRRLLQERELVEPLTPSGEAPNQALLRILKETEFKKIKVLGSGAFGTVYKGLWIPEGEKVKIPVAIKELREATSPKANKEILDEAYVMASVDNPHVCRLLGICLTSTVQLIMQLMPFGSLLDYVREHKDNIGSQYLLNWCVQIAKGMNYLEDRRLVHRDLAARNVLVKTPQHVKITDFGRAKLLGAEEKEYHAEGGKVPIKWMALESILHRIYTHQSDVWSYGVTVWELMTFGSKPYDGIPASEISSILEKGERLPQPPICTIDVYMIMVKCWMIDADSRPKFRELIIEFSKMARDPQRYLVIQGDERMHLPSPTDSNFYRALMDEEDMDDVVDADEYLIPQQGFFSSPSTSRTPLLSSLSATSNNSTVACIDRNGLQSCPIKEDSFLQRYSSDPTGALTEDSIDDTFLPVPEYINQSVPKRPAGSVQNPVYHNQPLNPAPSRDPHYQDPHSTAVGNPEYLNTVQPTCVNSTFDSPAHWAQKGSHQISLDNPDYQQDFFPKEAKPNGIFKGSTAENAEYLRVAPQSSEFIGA
In short: as §1

[4] = molecular target: Ba/F3 EGFR L858R/C797S mutants (Homo sapiens, UniProt P00533, C797S/L858R, cells depend on it); experiment: CellTiter-Glo cell viability, Ba/F3 EGFR L858R/C797S cells; settings: 72 hours, read-out: Ba/F3 EGFR mutant cell (IC50, nM) L/C
Sequence of Ba/F3 EGFR L858R/C797S mutants (P00533 whole entry C797S/L858R): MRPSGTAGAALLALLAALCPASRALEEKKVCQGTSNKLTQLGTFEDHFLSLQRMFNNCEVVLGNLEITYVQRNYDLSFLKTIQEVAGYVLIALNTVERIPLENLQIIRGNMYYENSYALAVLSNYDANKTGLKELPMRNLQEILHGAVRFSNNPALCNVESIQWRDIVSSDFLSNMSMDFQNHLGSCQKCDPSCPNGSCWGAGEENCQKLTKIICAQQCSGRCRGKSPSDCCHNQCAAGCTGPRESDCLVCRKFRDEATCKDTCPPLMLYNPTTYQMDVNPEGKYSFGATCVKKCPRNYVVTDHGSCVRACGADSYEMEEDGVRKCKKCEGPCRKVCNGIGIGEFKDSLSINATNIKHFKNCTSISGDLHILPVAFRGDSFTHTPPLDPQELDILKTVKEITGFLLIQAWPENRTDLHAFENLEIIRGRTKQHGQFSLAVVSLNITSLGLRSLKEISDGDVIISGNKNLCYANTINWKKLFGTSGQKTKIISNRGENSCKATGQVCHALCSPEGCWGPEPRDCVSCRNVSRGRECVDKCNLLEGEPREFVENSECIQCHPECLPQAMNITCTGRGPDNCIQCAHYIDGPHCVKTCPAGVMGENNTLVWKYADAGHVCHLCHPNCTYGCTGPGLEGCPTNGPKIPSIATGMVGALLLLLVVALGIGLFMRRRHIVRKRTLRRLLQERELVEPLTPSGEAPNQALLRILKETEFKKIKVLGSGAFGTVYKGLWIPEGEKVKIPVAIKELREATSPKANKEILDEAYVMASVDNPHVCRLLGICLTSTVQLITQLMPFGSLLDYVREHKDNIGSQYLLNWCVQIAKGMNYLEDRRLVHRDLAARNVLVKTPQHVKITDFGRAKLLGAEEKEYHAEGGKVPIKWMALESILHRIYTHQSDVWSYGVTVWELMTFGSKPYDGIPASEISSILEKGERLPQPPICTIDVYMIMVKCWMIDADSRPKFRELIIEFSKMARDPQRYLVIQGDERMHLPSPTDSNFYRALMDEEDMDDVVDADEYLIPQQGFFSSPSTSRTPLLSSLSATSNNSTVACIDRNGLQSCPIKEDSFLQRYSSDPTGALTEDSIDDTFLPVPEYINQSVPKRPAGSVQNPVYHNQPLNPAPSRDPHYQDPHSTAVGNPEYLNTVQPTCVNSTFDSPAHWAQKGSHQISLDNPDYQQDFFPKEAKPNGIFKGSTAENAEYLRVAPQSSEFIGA
In short: as §1

[5] = molecular target: Ba/F3 EGFR Del19/T790M/C797S mutants (Homo sapiens, UniProt P00533, T790M/C797S, cells depend on it, form not given); experiment: CellTiter-Glo cell viability, Ba/F3 EGFR Del19/T790M/C797S cells; settings: 72 hours, read-out: Ba/F3 EGFR mutant cell (IC50, nM) D/T/C
Sequence of Ba/F3 EGFR Del19/T790M/C797S mutants (P00533 with tags, fused parts or gaps DEL746-750/T790M/C797S, form open): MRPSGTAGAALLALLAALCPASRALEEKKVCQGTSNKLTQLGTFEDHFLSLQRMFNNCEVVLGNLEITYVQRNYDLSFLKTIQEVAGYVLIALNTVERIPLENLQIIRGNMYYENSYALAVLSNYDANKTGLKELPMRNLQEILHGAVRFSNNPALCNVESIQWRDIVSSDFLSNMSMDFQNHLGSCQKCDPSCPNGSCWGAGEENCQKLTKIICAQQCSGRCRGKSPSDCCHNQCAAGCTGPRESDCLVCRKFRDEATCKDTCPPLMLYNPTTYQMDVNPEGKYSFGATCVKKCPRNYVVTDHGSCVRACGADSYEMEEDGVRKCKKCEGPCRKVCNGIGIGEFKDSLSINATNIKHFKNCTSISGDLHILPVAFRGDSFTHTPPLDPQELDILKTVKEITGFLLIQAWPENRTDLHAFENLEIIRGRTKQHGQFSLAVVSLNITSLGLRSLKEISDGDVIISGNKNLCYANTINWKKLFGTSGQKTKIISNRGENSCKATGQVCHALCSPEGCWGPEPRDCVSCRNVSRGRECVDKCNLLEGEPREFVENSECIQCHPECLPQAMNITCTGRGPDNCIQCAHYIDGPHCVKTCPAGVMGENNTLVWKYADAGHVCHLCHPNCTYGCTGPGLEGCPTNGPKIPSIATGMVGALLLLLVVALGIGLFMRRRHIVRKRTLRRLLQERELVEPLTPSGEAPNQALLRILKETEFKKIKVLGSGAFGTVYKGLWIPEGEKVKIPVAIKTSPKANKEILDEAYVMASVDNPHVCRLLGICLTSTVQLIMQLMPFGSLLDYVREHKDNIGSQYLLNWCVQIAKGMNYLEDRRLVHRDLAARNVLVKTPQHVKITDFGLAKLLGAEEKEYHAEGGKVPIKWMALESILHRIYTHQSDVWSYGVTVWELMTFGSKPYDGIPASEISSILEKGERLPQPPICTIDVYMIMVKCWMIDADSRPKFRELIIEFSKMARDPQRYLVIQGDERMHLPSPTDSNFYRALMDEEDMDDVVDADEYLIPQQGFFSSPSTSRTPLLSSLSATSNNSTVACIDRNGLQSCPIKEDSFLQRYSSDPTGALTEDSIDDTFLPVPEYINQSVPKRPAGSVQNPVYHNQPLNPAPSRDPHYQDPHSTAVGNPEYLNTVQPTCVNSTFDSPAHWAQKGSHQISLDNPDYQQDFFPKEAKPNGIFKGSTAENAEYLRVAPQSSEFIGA
In short: as §1

Sequence of Ba/F3 EGFR Wild-type (P00533 whole entry, change not shown): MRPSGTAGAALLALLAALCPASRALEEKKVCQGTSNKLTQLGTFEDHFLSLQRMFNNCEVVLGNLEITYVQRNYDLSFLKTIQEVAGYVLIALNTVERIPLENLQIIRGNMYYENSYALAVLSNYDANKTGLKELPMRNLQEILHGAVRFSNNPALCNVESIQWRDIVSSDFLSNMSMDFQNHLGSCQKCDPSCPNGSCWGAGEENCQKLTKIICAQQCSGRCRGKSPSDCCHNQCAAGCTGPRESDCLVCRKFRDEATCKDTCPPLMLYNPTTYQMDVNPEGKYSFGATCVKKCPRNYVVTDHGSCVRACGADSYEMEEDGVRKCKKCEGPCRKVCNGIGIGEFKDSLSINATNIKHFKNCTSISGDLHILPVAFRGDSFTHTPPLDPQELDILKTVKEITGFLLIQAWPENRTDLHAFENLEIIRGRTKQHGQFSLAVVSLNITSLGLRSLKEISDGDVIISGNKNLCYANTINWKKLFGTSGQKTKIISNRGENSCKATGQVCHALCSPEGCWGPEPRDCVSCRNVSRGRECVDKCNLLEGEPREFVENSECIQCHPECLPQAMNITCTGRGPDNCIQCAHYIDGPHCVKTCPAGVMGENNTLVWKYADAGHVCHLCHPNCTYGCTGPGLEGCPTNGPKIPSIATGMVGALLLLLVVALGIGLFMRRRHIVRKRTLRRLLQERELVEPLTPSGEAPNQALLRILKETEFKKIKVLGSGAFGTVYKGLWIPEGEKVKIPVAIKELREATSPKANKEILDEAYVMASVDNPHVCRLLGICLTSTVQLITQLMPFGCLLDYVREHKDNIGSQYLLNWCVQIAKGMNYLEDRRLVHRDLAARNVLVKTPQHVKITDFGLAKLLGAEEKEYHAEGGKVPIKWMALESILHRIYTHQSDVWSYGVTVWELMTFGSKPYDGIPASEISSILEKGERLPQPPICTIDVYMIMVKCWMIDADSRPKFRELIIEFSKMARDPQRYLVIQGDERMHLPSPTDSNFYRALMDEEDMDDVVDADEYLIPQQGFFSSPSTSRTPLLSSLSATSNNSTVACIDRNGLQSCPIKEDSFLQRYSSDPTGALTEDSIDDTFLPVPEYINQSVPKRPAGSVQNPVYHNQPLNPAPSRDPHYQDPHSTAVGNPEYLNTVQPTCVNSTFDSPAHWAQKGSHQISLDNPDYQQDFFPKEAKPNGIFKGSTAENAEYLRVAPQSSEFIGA

Row | SMILES | GI50 (Ba/F3 EGFR Wild-type) | GI50 [1] | GI50 [2] | GI50 [3] | GI50 [4] | GI50 [5]
1 | COc1cc(N2CCC(N3CCCC3)CC2)c(C)cc1Nc1ncc(Cl)c(Nc2cccc(OC)c2NS(C)(=O)=O)n1 [Example C10, N-(2-((5-chloro-2-((2-methoxy-5-methyl-4-(4-(pyrrolidin-1-yl)piperidin-1-yl)phenyl)amino)pyrimidin-4-yl)amino)-6-methoxyphenyl)methanesulfonamide] | 404 nM | 9 nM | 6 nM | 45 nM | 61 nM | 9 nM
2 | CCc1cc(Nc2ncc(Br)c(Nc3ccc4nccnc4c3NS(C)(=O)=O)n2)c(OC)cc1N1CCC(N2CC3CCC2CN3C)CC1 (stereo not drawn) [Example A46, N-(6-((5-bromo-2-((5-ethyl-2-methoxy-4-(4-(5-methyl-2,5-diazabicyclo[2.2.2]octan-2-yl)piperidin-1-yl)phenyl)amino)pyrimidin-4-yl)amino)quinoxalin-5-yl)methanesulfonamide] | 739 nM | 12 nM | 7 nM | 43 nM | 113 nM | 8 nM
3 | CCc1cc(Nc2ncc(Cl)c(Nc3cccc(OC)c3NS(C)(=O)=O)n2)c(OC)cc1N1CCC(N2CCOCC2)CC1 [Example C20, N-(2-((5-chloro-2-((5-ethyl-2-methoxy-4-(4-morpholinopiperidin-1-yl)phenyl)amino)pyrimidin-4-yl)amino)-6-methoxyphenyl)methanesulfonamide] | 1160 nM | 22 nM | 21 nM | 148 nM | 87 nM | 21 nM
4 | CCCc1cc(Nc2ncc(Br)c(Nc3ccc4nccnc4c3N(C)S(C)(=O)=O)n2)c(OC)cc1N1CCC(N(C)C)CC1 [Example B24, N-(6-((5-bromo-2-((4-(4-(dimethylamino)piperidin-1-yl)-2-methoxy-5-propylphenyl)amino)pyrimidin-4-yl)amino)quinoxalin-5-yl)-N-methylmethanesulfonamide] | 908 nM | 17 nM | 23 nM | 65 nM | 185 nM | 20 nM
5 | COc1cc(C2CCNCC2)ccc1Nc1ncc(C2CC2)c(Nc2ccc3nccnc3c2NS(C)(=O)=O)n1 [Example B20, N-(6-((5-cyclopropyl-2-((2-methoxy-4-(piperidin-4-yl)phenyl)amino)pyrimidin-4-yl)amino)quinoxalin-5-yl)methanesulfonamide] | > 2000 nM | 697 nM | 1810 nM | 1850 nM | 1140 nM | 758 nM
6 | CCc1cc(Nc2ncc(Cl)c(Nc3ccc4nccnc4c3NS(C)(=O)=O)n2)c(OC)cc1N1CCC(N2CCOCC2)CC1 [Example A29, N-(6-((5-chloro-2-((5-ethyl-2-methoxy-4-(4-morpholinopiperidin-1-yl)phenyl)amino)pyrimidin-4-yl)amino)quinoxalin-5-yl)methanesulfonamide] | 200 nM | 27 nM | 13 nM | 25 nM | 79 nM | 69 nM
7 | COc1cc(N2CCC(N3CCCC3)CC2)c(C)cc1Nc1ncc(Br)c(Nc2cccc(OC)c2NS(C)(=O)=O)n1 [Example C25, N-(2-((5-bromo-2-((2-methoxy-5-methyl-4-(4-(pyrrolidin-1-yl)piperidin-1-yl)phenyl)amino)pyrimidin-4-yl)amino)-6-methoxyphenyl)methanesulfonamide] | 707 nM | 18 nM | 6 nM | 44 nM | 55 nM | 6 nM
8 | CCc1cc(Nc2ncc(Cl)c(Nc3ccc4nccnc4c3N(C)S(C)(=O)=O)n2)c(OC)cc1N1CC2CCC1CN2C(C)C (stereo not drawn) [Example B28, N—N-(6-((5-chloro-2-((5-ethyl-4-(5-isopropyl-2,5-diazabicyclo[2.2.2]octan-2-yl)-2-methoxyphenyl)amino)pyrimidin-4-yl)amino)quinoxalin-5-yl)-N-methylmethanesulfonamide] | 332 nM | 14 nM | 23 nM | 50 nM | 26 nM | 5 nM
9 | COc1cc(C2CCNCC2)c(F)cc1Nc1ncc(Cl)c(Nc2ccc3nccnc3c2NS(C)(=O)=O)n1 [Example B21, N-(6-((5-chloro-2-((5-fluoro-2-methoxy-4-(piperidin-4-yl)phenyl)amino)pyrimidin-4-yl)amino)quinoxalin-5-yl)methanesulfonamide] | 1730 nM | 342 nM | 469 nM | 693 nM | 500 nM | 448 nM
10 | CCc1cc(Nc2ncc(Cl)c(Nc3ccc4nccnc4c3N(C)S(C)(=O)=O)n2)c(OC)cc1N1CCC(N2CCOCC2)CC1 [Example A40, N-(6-((5-chloro-2-((5-ethyl-2-methoxy-4-(4-morpholinopiperidin-1-yl)phenyl)amino)pyrimidin-4-yl)amino)quinoxalin-5-yl)-N-methylmethanesulfonamide] | 845 nM | 10 nM | 10 nM | 94 nM | 50 nM | 12 nM
11 | CCCc1cc(Nc2ncc(Br)c(Nc3ccc4nccnc4c3NS(C)(=O)=O)n2)c(OC)cc1N1CCC(N(C)C)CC1 [Example B13, N-(6-((5-bromo-2-((4-(4-(dimethylamino)piperidin-1-yl)-2-methoxy-5-propylphenyl)amino)pyrimidin-4-yl)amino)quinoxalin-5-yl)methanesulfonamide] | 468 nM | 41 nM | 13 nM | 22 nM | 114 nM | 60 nM
12 | CCc1cc(Nc2ncc(Br)c(Nc3ccc4nccnc4c3N(C)S(C)(=O)=O)n2)c(OC(C)C)cc1C1CCN(C)CC1 [Example B32, N-(6-((5-bromo-2-((5-ethyl-2-isopropoxy-4-(1-methylpiperidin-4-yl)phenyl)amino)pyrimidin-4-yl)amino)quinoxalin-5-yl)-N-methylmethanesulfonamide] | 851 nM | 172 nM | 154 nM | 83 nM | 200 nM | 29 nM
13 | COc1cc(N2CCC(N3CCN(C)CC3)CC2)c(C)cc1Nc1ncc(Cl)c(Nc2ccc3nccnc3c2NS(C)(=O)=O)n1 [Example A1, N-(6-((5-chloro-2-((2-methoxy-5-methyl-4-(4-(4-methylpiperazin-1-yl)piperidin-1-yl)phenyl)amino)pyrimidin-4-yl)amino)quinoxalin-5-yl)methanesulfonamide] | 312 nM | 17 nM | 7 nM | 17 nM | 33 nM | 6 nM
14 | CCc1cc(Nc2ncc(Br)c(Nc3cccc(OC)c3NS(C)(=O)=O)n2)c(OC)cc1N1CCC(N2CCN(C)CC2)CC1 [Example C22, N-(2-((5-bromo-2-((5-ethyl-2-methoxy-4-(4-(4-methylpiperazin-1-yl)piperidin-1-yl)phenyl)amino)pyrimidin-4-yl)amino)-6-methoxyphenyl)methanesulfonamide] | 738 nM | 5 nM | 4 nM | 25 nM | 36 nM | 2 nM
15 | CCc1cc(Nc2ncc(Br)c(Nc3ccc4c(c3N(C)S(C)(=O)=O)OCCO4)n2)c(OC)cc1N1CCC(N2CCN(C)CC2)CC1 [Example C28, N-(6-((5-bromo-2-((5-ethyl-2-methoxy-4-(4-(4-methylpiperazin-1-yl)piperidin-1-yl)phenyl)amino)pyrimidin-4-yl)amino)-2,3-dihydrobenzo[b][1,4]dioxin-5-yl)-N-methylmethanesulfonamide] | 699 nM | 7 nM | 10 nM | 13 nM | 68 nM | 10 nM
16 | COc1cc(N2CCC(N(C)C)CC2)c(C)cc1Nc1ncc(Br)c(Nc2cccc(OC)c2N(C)S(C)(=O)=O)n1 [Example C5, N-(2-((5-bromo-2-((4-(4-(dimethylamino)piperidin-1-yl)-2-methoxy-5-methylphenyl)amino)pyrimidin-4-yl)amino)-6-methoxyphenyl)-N-methylmethanesulfonamide] | 545 nM | 19 nM | 17 nM | 94 nM | 91 nM | 34 nM
17 | CCc1cc(Nc2ncc(Br)c(Nc3ccc4nccnc4c3N(C)S(C)(=O)=O)n2)c(OC)cc1N1CC2(C1)CN(C(C)C)C2 [Example B29, N-(6-((5-bromo-2-((5-ethyl-4-(6-isopropyl-2,6-diazaspiro[3.3]heptan-2-yl)-2-methoxyphenyl)amino)pyrimidin-4-yl)amino)quinoxalin-5-yl)-N-methylmethanesulfonamide] | 317 nM | 14 nM | 9 nM | 68 nM | 27 nM | 2 nM
